Laboratory results taken from patent US20240368164A1, “PURINE NUCLEOSIDES, THEIR INTERMEDIATES, AND METHODS OF PREPARATION THEREOF” (Astrocyle Pharmaceuticals, Inc., priority 2021, published 2024).

How the values were obtained:
[1] = tested on: photothrombosis-induced stroke in mice; assay: Mouse photothrombotic stroke model; format: in vivo
Experimental: Photothrombosis-induced Stroke: Photothrombosis is performed as described in Zheng et al 2010 (PloS One 5 (12): e14401). In brief, Rose Bengal is a fluorescent dye that when injected into the vasculature and excited, generates singlet oxygen that damages the endothelial wall and induces a local thrombosis (clot). Using this technique, mice are given a 0.1 mL tail-vein injection of sterilized Rose Bengal (RB, Sigma, U.S.A.) in artificial cerebral spinal fluid (aCSF). The RB concentration is 20 mg/mL. A cortical region is centered in the imaging field and illuminated with a green laser (543 nm, 5 mW) using a 0.8-NA 40× water-immersion objective (Nikon, Tokyo). The clot formation is monitored in real time until the targeted vessel or downstream capillaries are firmly occluded. Stable clots are subsequently identified by a non-fluorescent vessel segmentation ending with highly fluorescent regions. […] Treatments, at doses such as 0.5 μmol/kg are introduced via intraperitoneal injections (i.p.). For experiments with A3 receptor antagonist MRS1523, mice are administered intraperitoneal injections (2 mg/kg) at the 0 and 2 hour timepoints to ensure receptor antagonism throughout the course of the study.
Animals and Photothrombosis-induced Stroke: Stroke is performed as described in Zheng et al 2010 (PloS One 5 (12): e14401). Female C57Bl/6 mice (4-6 months) are used in this study. From the methods of this manuscript: Mice are anesthetized at 3% isoflurane with 100% oxygen and subsequently maintained at 1% isoflurane through a nosecone. Depth of anesthesia is monitored and regulated according to vital signs, pinch withdrawal and eye blinks. Body temperature is maintained at 37° C. by a feedback-controlled heating pad (Gaymar T/Pump). Vital signs including oxygen saturation, respiratory rate, and heart rate are continuously monitored by using the MouseOx system (STARR Life Sciences). […]
Post photothrombotic infarction evaluation. The size of cerebral infarcts is evaluated using 2,3,5-Triphenyltetrazolium chloride (TTC) staining as described in Zheng et al 2010 (PloS One 5 (12): e14401). […]

[2] = tested on: traumatic brain injury (TBI) in mice; assay: Mouse traumatic brain injury (TBI) model; format: in vivo
Experimental: Animals and traumatic brain injury (TBI): TBI is performed with a controlled closed skull injury model as described in Talley-Watts et al. 2012 (J. Neurotrauma 30, 55-66). Following the method described therein, a pneumatic impact device is used to generate a moderate TBI leaving the skull and dura matter intact. To achieve this, C57BL/6 mice are anesthetized with isoflurane (3% induction, 1% maintenance) in 100% oxygen. A body temperature of 37° C. is maintained using a temperature-controlled heated surgical table. A small midline incision is made on the scalp using aseptic surgical techniques. A 5 mm stainless steel disc is positioned on the skull and fixed using superglue on the right parietal bone between bregma and lamda over the somatosensory cortex. The mouse is then positioned on a stage directly under the pneumatic impact tip. […] Mice are placed in a Thermo-Intensive Care Unit (Braintree Scientific model FV-1; 37° C.; 27% O2) and monitored until fully awake and moving freely. […]
Western Blot Analysis for GFAP: At selected survival times, mice are anesthetized under isoflurane and sacrificed. […] The homogenate is transferred to a 2 mL tube and centrifuged at 1000 g for 10 minutes at 4° C. and the supernatant is collected and analyzed. Protein concentration is determined by the BCA assay using a 1:50 dilution. […]

Question: What does the source list for `CSc1nc(N)c2ncn([C@H]3[C@H](O)[C@H](O)[C@]4(CO)C[C@H]34)c2n1` [Compound I-1, (1R,2R,3S,4R,5S)-4-(6-Amino-2-(methylthio)-9H-purin-9-yl)-1-(hydroxymethyl)bicyclo[3.1.0]hexane-2,3-diol]?
Answer: efficacy of I-1 in presence of A3 antagonist MRS1523 ([1]; mouse photothrombotic stroke and TBI models, with MRS1523): blocked; efficacy in mouse photothrombotic stroke model ([1]; mouse, stroke): significant efficacy; efficacy in mouse TBI model [2]: significant efficacy
